According to patent US20180161310A1, “COMPOUNDS AND METHODS FOR THE TREATMENT OF NEUROLOGICAL DISORDERS” (Teleos Therapeutics, LLC, priority 2016, published 2018):
Values joined by “and” are separate entries in the source; they are usually repeats but may differ in a detail not shown here. Equal values may be shown once.

Key:
zebrafish larvae = format: in vivo
Text: In an effort to determine how pharmacological inhibition of KCC2 affects zebrafish behaviors, 7 days post-fertilization (dpf) zebrafish larvae can be treated with two analogs of the selective KCC2 inhibitor, VU0463271 and VU0240551, and their behavioral responses in a battery of behavioral assays can be assessed. These behavioral assays can include a series of visual and acoustic stimuli presented to larval zebrafish in various contexts and combinations to elicit robust and reproducible patterns of activity. For example, behavioral assays can include two acoustic-stimulus-response (ASR1 and ASR2) assays, six visual-stimulus-response (VSR1-VSR6) assays, and three assays that combine acoustic and visual stimulus responses (AVSR1-AVSR3). Together, such a battery of behavioral assays use six stimuli, including red light (600 nm), blue light (420 nm), violet light (405 nm), green light (525 nm), low-intensity sound (60 dB) and high-intensity sound (70 dB). Behavioral responses of the larval zebrafish can be measured by a motion index (MI) that quantifies the motor activity of at least about 8 zebrafish larvae in each well of a 96-well plate.
Referring to FIGS. 1A-1B, zebrafish behavioral profiles can include a battery of individual behavioral assays labeled ASR1, AVSR1, ASR2, VSR1, VSR2, VSR3, VSR4, AVSR2, VSR5, AVSR3, and VSR6, as described herein. These behavioral assays can be combined to form a Motion Index (MI), which is a quantification of the motor activity of at least about 8 zebrafish larvae in each well of a 96-well plate. As shown in the representative images of FIGS. 1A-1B, zebrafish larvae were treated with DMSO (control), VU0463271 (FIG. 1A), or pentylentetrazol or PTZ (FIG. 1B).
Treatment with increasing doses of VU0463271 induced a unique and dose-dependent profile of behavioral responses, detectable at 2.5 μM and 5 μM. […] This relatively low concentration of VU0463271 elicited a reproducible behavioral profile with altered sensitivity of the fish larvae to specific combinations of stimuli. […] The increased MI in the AVSR1 and AVSR3 assays due to VU0463271 treatment reflects a seizure-like hyperexcitability in the larval fish.
Additionally, seizures have been induced in 7 dpf zebrafish larvae using pentylentetrazol (PTZ) treatment, and motor and electroencephalographic (EEG) responses were consistent with seizure phenotypes.

human KCC2 = target: T1, human KCC2 (Homo sapiens, UniProt Q9H2X9); assay: Thallium flux assay in HEK293 cells transiently transfected with human KCC2; format: cell-based; conditions: HEK293 cells over-expressing human KCC2
T1 construct: expressed in transfected cells; host or cells: HEK293
T1 sequence (Q9H2X9 1-1139): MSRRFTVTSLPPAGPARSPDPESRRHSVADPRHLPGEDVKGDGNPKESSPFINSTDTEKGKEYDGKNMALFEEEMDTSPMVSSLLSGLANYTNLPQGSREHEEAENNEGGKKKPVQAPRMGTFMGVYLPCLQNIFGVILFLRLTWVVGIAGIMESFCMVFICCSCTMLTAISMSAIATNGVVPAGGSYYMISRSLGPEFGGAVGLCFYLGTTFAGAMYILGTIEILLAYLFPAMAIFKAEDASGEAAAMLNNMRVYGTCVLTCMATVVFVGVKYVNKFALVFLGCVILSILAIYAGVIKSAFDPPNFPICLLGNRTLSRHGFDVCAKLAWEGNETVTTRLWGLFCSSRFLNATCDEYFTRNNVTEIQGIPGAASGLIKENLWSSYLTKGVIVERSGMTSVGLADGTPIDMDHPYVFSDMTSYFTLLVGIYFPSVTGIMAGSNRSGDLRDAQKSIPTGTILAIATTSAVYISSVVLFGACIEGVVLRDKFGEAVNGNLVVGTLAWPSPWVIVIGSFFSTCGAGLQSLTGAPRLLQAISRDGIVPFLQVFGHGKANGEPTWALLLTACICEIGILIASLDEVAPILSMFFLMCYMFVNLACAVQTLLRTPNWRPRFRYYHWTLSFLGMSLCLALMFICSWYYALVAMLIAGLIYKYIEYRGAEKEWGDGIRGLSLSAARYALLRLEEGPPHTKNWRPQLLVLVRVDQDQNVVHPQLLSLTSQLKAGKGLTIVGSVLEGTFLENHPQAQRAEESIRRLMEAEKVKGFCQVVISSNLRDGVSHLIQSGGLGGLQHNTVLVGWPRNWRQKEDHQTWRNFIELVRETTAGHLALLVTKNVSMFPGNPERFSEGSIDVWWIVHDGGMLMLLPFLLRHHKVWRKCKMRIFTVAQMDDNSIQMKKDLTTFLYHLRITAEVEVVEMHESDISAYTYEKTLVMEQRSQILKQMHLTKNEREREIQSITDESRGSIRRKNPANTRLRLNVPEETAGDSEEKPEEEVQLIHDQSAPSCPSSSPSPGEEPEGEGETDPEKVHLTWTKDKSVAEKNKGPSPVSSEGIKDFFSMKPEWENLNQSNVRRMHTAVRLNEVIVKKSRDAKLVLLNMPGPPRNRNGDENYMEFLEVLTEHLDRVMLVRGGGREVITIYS
Protocol: Phenotype-based screens, as described herein, are high-content and make use of complex behaviors to identify novel modulators, which may function through various mechanisms. Thus, hits identified in the suppressor screens described herein may or may not act directly on KCC2. To test whether the three hit compounds directly alter the activity of the transporter, thallium flux assays were performed in HEK293 cells transiently transfected with human KCC2 in order to measure the influx rate of KCC2 activity (see, e.g., Appendix B).

Compound: Cc1csc(N(C(=O)CSc2ccc(-c3ccccc3)nn2)C2CC2)n1 [VU0463271, N-Cyclopropyl-N-(4-methyl-2-thiazolyl)-2-[(6-phenyl-3-pyridazinyl)thio]acetamide]
- MI in the ASR2 and VSR assays (zebrafish larvae; 2.5 μM): reduced
- behavioral responses in the AVSR1 and AVSR3 assays (zebrafish larvae; 2.5 μM, seizure-like hyperexcitability): increased
- effect on MI along the assay battery (zebrafish larvae; 10 μM, very low MI): sedative effect
- concentration at which the dose-dependent profile of behavioral responses was detectable (zebrafish larvae; 7 dpf larvae): 2.5 µM and 5 µM
- rate of 10 mM [K+]o-induced thallium influx (KCC2-mediated flux) (human KCC2): significantly reduced

Compound: CCN1C(=O)C=CC1=O [N-ethylmaleimide]
- rate of 10 mM [K+]o-induced thallium influx (KCC2-mediated flux) (human KCC2): significantly increased
